We go through 9 molecules from ChEMBL document CHEMBL1201862, “PubChem BioAssay data set” (2004).

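Protocol summary: plate cells (96-well), add compound at 5 concentrations, incubate 48 h, interpolate endpoints linearly. GI50: concentration for 50% inhibition of growth.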 Active and inactive are the calls of the source. No stated cut-off is given here; in the data, active = GI50 up to about 1.1 µM and inactive = higher.

What all share (test): NCI tumour cell line growth inhibition, 48 h
Experiment [1] concerns 786-0.
Experiment [2] has as its system A549.
Experiment [3] has as its system CAKI-1.
Experiment [4] has as its system HT-29.
Experiment [5] has as its system NCI-H23.
Experiment [6] has as its system OVCAR-5.
In experiment [7] the test system is RPMI-8226.
The test system of experiment [8] is RXF 393.
For experiment [9], the system named is SF-268.
Experiment [10] relates to SF-295.
Experiment [11] concerns SK-MEL-5.
For experiment [12], the system named is SK-OV-3.
Experiment [13] has as its system SN12C.
For experiment [14], the system named is SW-620.
The test system of experiment [15] is UO-31.
Experiment [16] has as its system HCT-116.
Experiment [17] has as its system NCI-H226.

Consider `O=S1(=O)[C@H](c2ccccc2)c2c(-c3ccccc3)sc(-c3ccccc3)c2[C@@H]1c1ccccc1`, for which the GI50 was 38.9 µM (inactive) in experiment [1]; > 100 µM (inactive) in experiment [2]; > 100 µM (inactive) in experiment [3]; > 100 µM (inactive) in experiment [4]; > 100 µM (inactive) in experiment [5]; 3.81 µM (inactive) in experiment [6]. In addition, the GI50 is > 100 µM (inactive) in experiment [7]; 39.8 µM (inactive) in experiment [8]; > 100 µM (inactive) in [9]; > 100 µM (inactive) in experiment [10]; 71.9 µM (inactive) in experiment [11]; > 100 µM (inactive) in experiment [12]. The GI50 in experiment [13], in experiment [14] and in experiment [15] was > 100 µM (inactive) in each case.

Take `O=C(CSC(=S)N1CCCCC1)Nc1nc2c(s1)CCCC2`: the GI50 was 48.3 µM (inactive) in [1]; 43.6 µM (inactive) in experiment [2]; 12.1 µM (inactive) in experiment [16]; 36.3 µM (inactive) in experiment [4]; 43.4 µM (inactive) in experiment [17]; 36.6 µM (inactive) in experiment [5]. In addition, the GI50 is > 100 µM (inactive) in [6]; 33.5 µM (inactive) in experiment [7]; 20.7 µM (inactive) in experiment [9]; 16.4 µM (inactive) in experiment [10]; 18.5 µM (inactive) in [11]; > 100 µM (inactive) in experiment [12]. Moreover, the GI50 in experiment [13] is 31.3 µM (inactive); in [14], 40.7 µM (inactive); in experiment [15], 33.7 µM (inactive).

As for `N=C(N)N/N=C/c1oc(-c2ccc(S(=O)(=O)O)o2)c(-c2ccc(S(=O)(=O)O)o2)c1[N+](=O)[O-]`, the GI50 in [1], in [2], in experiment [3], in experiment [16], in experiment [4] and in experiment [17] was > 100 µM (inactive) each time. The GI50 in experiment [5], in experiment [6], in [8], in experiment [9], in experiment [10] and in experiment [11] was > 100 µM (inactive) each time. Also, the GI50 in [12], in experiment [13], in experiment [14] and in [15] was > 100 µM (inactive) throughout.

For `C=C1C(=O)OC2CCCCC3OC3C12` (stereo unspecified), the GI50 is 7.19 µM (inactive) in [1]; 20.9 µM (inactive) in experiment [2]; 3.36 µM (inactive) in experiment [3]; 2.99 µM (inactive) in experiment [16]; 14.4 µM (inactive) in [4]; 14.4 µM (inactive) in experiment [5]. For the same molecule, the GI50 was 18.2 µM (inactive) in experiment [6]; 5.55 µM (inactive) in experiment [7]; 13.4 µM (inactive) in [8]; 13.8 µM (inactive) in [9]; 23.2 µM (inactive) in [10]; 3.99 µM (inactive) in experiment [11]. The GI50 was 16.5 µM (inactive) in [12], 7.62 µM (inactive) in experiment [13], 4.06 µM (inactive) in experiment [14] and 15.4 µM (inactive) in experiment [15].

Take `CC(C)(C)c1cc(C#N)c2c(c1)C(=O)OC2(c1ccccc1)c1ccccc1C#N` (stereo unspecified): the GI50 in [1], in [2], in [3], in experiment [16], in experiment [4] and in [17] was > 100 µM (inactive) each time. Also, the GI50 is > 100 µM (inactive) in experiment [5]; > 100 µM (inactive) in [6]; > 100 µM (inactive) in experiment [8]; > 100 µM (inactive) in experiment [9]; 78.3 µM (inactive) in experiment [10]; > 100 µM (inactive) in experiment [12]. Further, the figures for the GI50 in experiment [13], in experiment [14] and in [15] were > 100 µM (inactive), > 100 µM (inactive) and 32.1 µM (inactive), respectively.

`O=C(NC1CCCCC1)c1c(O)[nH]c(=S)[nH]c1=O`: the GI50 is > 100 µM (inactive) in experiment [1]; 52.4 µM (inactive) in experiment [2]; > 100 µM (inactive) in experiment [3]; > 100 µM (inactive) in experiment [16]; > 100 µM (inactive) in experiment [4]; > 100 µM (inactive) in experiment [17]. In addition, the GI50 is > 100 µM (inactive) in experiment [5]; > 100 µM (inactive) in [6]; > 100 µM (inactive) in experiment [7]; > 100 µM (inactive) in experiment [9]; 99.3 µM (inactive) in experiment [10]; > 100 µM (inactive) in experiment [11]. Also, the GI50 is > 100 µM (inactive) in experiment [12], > 100 µM (inactive) in experiment [13], > 100 µM (inactive) in [14] and 79.3 µM (inactive) in experiment [15].

Take `COc1cc(C(=O)C/C(CCC(=O)Nc2ccc(Cl)cc2C)=N/NC(=O)C(N)=O)ccc1O`: the GI50 in experiment [1], in experiment [2], in experiment [3], in [16], in experiment [4] and in [17] was > 100 µM (inactive) each time. Further, the GI50 in [5], in experiment [6], in [7], in experiment [9], in [10] and in experiment [11] was > 100 µM (inactive) in each case. Also, the GI50 is 65.3 µM (inactive) in [12], > 100 µM (inactive) in experiment [13], > 100 µM (inactive) in experiment [14] and 43.1 µM (inactive) in [15].

`CC(C)(C)OC(=O)NC1CCC[C@H]1O` (stereo partly specified): the GI50 in experiment [1], in experiment [2], in experiment [3], in experiment [16], in [4] and in [17] was > 100 µM (inactive) throughout. The GI50 in [5], in experiment [6], in experiment [8], in experiment [9], in experiment [10] and in [11] was > 100 µM (inactive) in each case. The GI50 in experiment [12], in experiment [13], in experiment [14] and in experiment [15] was > 100 µM (inactive) throughout.

With `CCOC(=O)c1ccc(N[C@@H]2c3cc4c(cc3C(C3=CC(=O)C(=O)C(OC)=C3)[C@H]3C(=O)OCC32)OCO4)cc1` (stereo partly specified), the GI50 is 1.6 µM (inactive) in experiment [1]; 0.548 µM (active) in [2]; 0.634 µM (active) in experiment [3]; 2.86 µM (inactive) in [16]; 4.49 µM (inactive) in experiment [4]; 1.54 µM (inactive) in experiment [5]. For the same molecule, the GI50 was 4.88 µM (inactive) in [6]; 1.06 µM (active) in [7]; 2.84 µM (inactive) in experiment [8]; 1.77 µM (inactive) in experiment [9]; 1.35 µM (inactive) in experiment [10]; 2.72 µM (inactive) in [11]. Moreover, the GI50 was 2.26 µM (inactive) in experiment [12], 2 µM (inactive) in [13], 2.34 µM (inactive) in [14] and 2.52 µM (inactive) in [15].
